Measured values taken from US7030132B2, “Method of improving bioavailability of orally administered drugs, a method of screening for enhancers of such bioavailability and novel pharmaceutical compositions for oral delivery of drugs” (Cancer Research Ventures Limited, priority 1999, dated 2006).
pIC50: −log10 of the molar value.

System: IGROV1 parental cells
Assay: Cytotoxicity, sulphorhodamine (SRB) assay, IGROV1 parental cells
Assay type: cell-based, human
Conditions: 2 μM GF120918, topoisomerase I drugs
Description: (§1) Cytotoxicity was Determined Using the Sulphorhodamine (SRB) Assay. Cells were plated in 96-wells plates, 1500 cells/well. Cells were cultured for 48 h at 37° C. and 5% CO2 in the absence of drugs. Then, in a serial dilution from approximately 1 μM to approximately 0.05 nM drugs were added, and cells were cultured for another 5 days at 37° C. and 5% CO2 Next cells are fixated in the plate, washed, and coloured with SRB. After 20 min unbound SRB is washed away using 0.1 M acetic acid. SRB that is bound to the cells is dissolved in 10 mM Tris-HCl buffer. Using a 96-well plate reader the absorbance at 540 nm is measured. For each drug the IC50 value was determined. Results are the mean of at least 3 experiments.

Compound | effect of GF120918 on the sensitivity of the parental cell line IGROV1
COc1cc2c(cc1OC)CN(CCc1ccc(NC(=O)c3cccc4c(=O)c5cccc(OC)c5[nH]c34)cc1)CC2 [GF120918] | no or very little effect

Same assay, conditions: Homo sapiens, IGROV-1, 120 h; IGROV1 parental cells, without GF120918, 5 days drug exposure; read-out: IGROV1 IC50

Compound | pIC50
CC[C@@]1(O)C(=O)OCc2c1cc1n(c2=O)Cc2c-1nc1ccccc1c2CC[Si](C)(C)C [BNP1350] | 9.36
CCc1c2c(nc3ccc(OC(=O)N4CCC(N5CCCCC5)CC4)cc13)-c1cc3c(c(=O)n1C2)COC(=O)[C@]3(O)CC [CPT11, irinotecan] | 6.26
CC[C@@]1(O)C(=O)OCc2c1cc1n(c2=O)Cc2cc3c(CN(C)C)c(O)ccc3nc2-1 [topotecan] | 8.05

Same assay, conditions: IC50 without / with 2 μM GF120918, IGROV1

Compound | ratio −/+ GF120918 (IGROV1)
CC[C@@]1(O)C(=O)OCc2c1cc1n(c2=O)Cc2c-1nc1ccccc1c2CC[Si](C)(C)C [BNP1350] | 0.53
CCc1c2c(nc3ccc(OC(=O)N4CCC(N5CCCCC5)CC4)cc13)-c1cc3c(c(=O)n1C2)COC(=O)[C@]3(O)CC [CPT11, irinotecan] | 0.84
CC[C@@]1(O)C(=O)OCc2c1cc1n(c2=O)Cc2c-1nc1cc(F)c(C)c3c1c2C(N)CC3.CS(=O)(=O)O (stereo partly shown) [DX8951f] | 0.60
CC[C@@]1(O)C(=O)OCc2c1cc1n(c2=O)Cc2c-1nc1cc3c(cc1c2CN1CCN(C)CC1)OCCO3 [GG211] | 0.74
CCc1c2c(nc3ccc(O)cc13)-c1cc3c(c(=O)n1C2)COC(=O)[C@]3(O)CC [SN-38] | 1.66
CC[C@@]1(O)C(=O)OCc2c1cc1n(c2=O)Cc2cc3c(CN(C)C)c(O)ccc3nc2-1 [topotecan] | 0.97

Same assay, conditions: IGROV1 parental cells, + 2 μM GF120918; read-out: IGROV1 + GF120918 IC50

Compound | pIC50
CC[C@@]1(O)C(=O)OCc2c1cc1n(c2=O)Cc2c-1nc1ccccc1c2CC[Si](C)(C)C [BNP1350] | 9.08
CCc1c2c(nc3ccc(OC(=O)N4CCC(N5CCCCC5)CC4)cc13)-c1cc3c(c(=O)n1C2)COC(=O)[C@]3(O)CC [CPT11, irinotecan] | 6.19
CC[C@@]1(O)C(=O)OCc2c1cc1n(c2=O)Cc2c-1nc1cc(F)c(C)c3c1c2C(N)CC3.CS(=O)(=O)O (stereo partly shown) [DX8951f] | 9.77
CC[C@@]1(O)C(=O)OCc2c1cc1n(c2=O)Cc2c-1nc1cc3c(cc1c2CN1CCN(C)CC1)OCCO3 [GG211] | 9.06
CCc1c2c(nc3ccc(O)cc13)-c1cc3c(c(=O)n1C2)COC(=O)[C@]3(O)CC [SN-38] | 8.96
CC[C@@]1(O)C(=O)OCc2c1cc1n(c2=O)Cc2cc3c(CN(C)C)c(O)ccc3nc2-1 [topotecan] | 8.03

Same assay, conditions: IGROV1 parental cells, without GF120918, 5 days drug exposure; read-out: IGROV1 IC50

Compound | pIC50
CC[C@@]1(O)C(=O)OCc2c1cc1n(c2=O)Cc2c-1nc1cc(F)c(C)c3c1c2C(N)CC3.CS(=O)(=O)O (stereo partly shown) [DX8951f] | 10.00
CC[C@@]1(O)C(=O)OCc2c1cc1n(c2=O)Cc2c-1nc1cc3c(cc1c2CN1CCN(C)CC1)OCCO3 [GG211] | 9.19
CCc1c2c(nc3ccc(O)cc13)-c1cc3c(c(=O)n1C2)COC(=O)[C@]3(O)CC [SN-38] | 8.74

System: T8 resistant cells
Assay: Cytotoxicity, sulphorhodamine (SRB) assay, T8 resistant (BCRP overexpressing) cells
Assay type: cell-based, human
Conditions: + 2 μM GF120918
Description: as §1

Compound | Rf (resistance factor) T8 + GF120918
CC[C@@]1(O)C(=O)OCc2c1cc1n(c2=O)Cc2c-1nc1ccccc1c2CC[Si](C)(C)C [BNP1350] | 4.1
CCc1c2c(nc3ccc(OC(=O)N4CCC(N5CCCCC5)CC4)cc13)-c1cc3c(c(=O)n1C2)COC(=O)[C@]3(O)CC [CPT11, irinotecan] | 4.7
CC[C@@]1(O)C(=O)OCc2c1cc1n(c2=O)Cc2c-1nc1cc(F)c(C)c3c1c2C(N)CC3.CS(=O)(=O)O (stereo partly shown) [DX8951f] | 2.3
CC[C@@]1(O)C(=O)OCc2c1cc1n(c2=O)Cc2c-1nc1cc3c(cc1c2CN1CCN(C)CC1)OCCO3 [GG211] | 5.3
CCc1c2c(nc3ccc(O)cc13)-c1cc3c(c(=O)n1C2)COC(=O)[C@]3(O)CC [SN-38] | 6.0
CC[C@@]1(O)C(=O)OCc2c1cc1n(c2=O)Cc2cc3c(CN(C)C)c(O)ccc3nc2-1 [topotecan] | 4.3

Same assay, conditions: Homo sapiens; T8 resistant cells, without GF120918; read-out: T8 IC50

Compound | pIC50
CC[C@@]1(O)C(=O)OCc2c1cc1n(c2=O)Cc2c-1nc1ccccc1c2CC[Si](C)(C)C [BNP1350] | 8.31
CCc1c2c(nc3ccc(OC(=O)N4CCC(N5CCCCC5)CC4)cc13)-c1cc3c(c(=O)n1C2)COC(=O)[C@]3(O)CC [CPT11, irinotecan] | 4.47
CC[C@@]1(O)C(=O)OCc2c1cc1n(c2=O)Cc2cc3c(CN(C)C)c(O)ccc3nc2-1 [topotecan] | 6.01

Same assay, conditions: IC50 without / with 2 μM GF120918, T8

Compound | ratio −/+ GF120918 (T8)
CC[C@@]1(O)C(=O)OCc2c1cc1n(c2=O)Cc2c-1nc1ccccc1c2CC[Si](C)(C)C [BNP1350] | 1.4
CCc1c2c(nc3ccc(OC(=O)N4CCC(N5CCCCC5)CC4)cc13)-c1cc3c(c(=O)n1C2)COC(=O)[C@]3(O)CC [CPT11, irinotecan] | 11.2
CC[C@@]1(O)C(=O)OCc2c1cc1n(c2=O)Cc2c-1nc1cc(F)c(C)c3c1c2C(N)CC3.CS(=O)(=O)O (stereo partly shown) [DX8951f] | 7.4
CC[C@@]1(O)C(=O)OCc2c1cc1n(c2=O)Cc2c-1nc1cc3c(cc1c2CN1CCN(C)CC1)OCCO3 [GG211] | 4.9
CCc1c2c(nc3ccc(O)cc13)-c1cc3c(c(=O)n1C2)COC(=O)[C@]3(O)CC [SN-38] | 64.1
CC[C@@]1(O)C(=O)OCc2c1cc1n(c2=O)Cc2cc3c(CN(C)C)c(O)ccc3nc2-1 [topotecan] | 24.4

Same assay, conditions: T8 resistant cells, + 2 μM GF120918; read-out: T8 + GF120918 IC50

Compound | pIC50
CC[C@@]1(O)C(=O)OCc2c1cc1n(c2=O)Cc2c-1nc1ccccc1c2CC[Si](C)(C)C [BNP1350] | 8.46
CCc1c2c(nc3ccc(OC(=O)N4CCC(N5CCCCC5)CC4)cc13)-c1cc3c(c(=O)n1C2)COC(=O)[C@]3(O)CC [CPT11, irinotecan] | 5.52
CC[C@@]1(O)C(=O)OCc2c1cc1n(c2=O)Cc2c-1nc1cc(F)c(C)c3c1c2C(N)CC3.CS(=O)(=O)O (stereo partly shown) [DX8951f] | 9.41
CC[C@@]1(O)C(=O)OCc2c1cc1n(c2=O)Cc2c-1nc1cc3c(cc1c2CN1CCN(C)CC1)OCCO3 [GG211] | 8.34
CCc1c2c(nc3ccc(O)cc13)-c1cc3c(c(=O)n1C2)COC(=O)[C@]3(O)CC [SN-38] | 8.18
CC[C@@]1(O)C(=O)OCc2c1cc1n(c2=O)Cc2cc3c(CN(C)C)c(O)ccc3nc2-1 [topotecan] | 7.40

Same assay, conditions: T8 resistant cells, without GF120918; read-out: T8 IC50

Compound | pIC50
CC[C@@]1(O)C(=O)OCc2c1cc1n(c2=O)Cc2c-1nc1cc(F)c(C)c3c1c2C(N)CC3.CS(=O)(=O)O (stereo partly shown) [DX8951f] | 8.54
CC[C@@]1(O)C(=O)OCc2c1cc1n(c2=O)Cc2c-1nc1cc3c(cc1c2CN1CCN(C)CC1)OCCO3 [GG211] | 7.65
CCc1c2c(nc3ccc(O)cc13)-c1cc3c(c(=O)n1C2)COC(=O)[C@]3(O)CC [SN-38] | 6.38

Same assay, conditions: addition of 2 μM GF120918

Compound | reversal of resistance of T8 for topoisomerase I drugs
COc1cc2c(cc1OC)CN(CCc1ccc(NC(=O)c3cccc4c(=O)c5cccc(OC)c5[nH]c34)cc1)CC2 [GF120918] | for the greater part reversed

Same assay, conditions: without GF120918

Compound | Rf (resistance factor, IC50 T8 / IC50 IGROV1)
CC[C@@]1(O)C(=O)OCc2c1cc1n(c2=O)Cc2c-1nc1ccccc1c2CC[Si](C)(C)C [BNP1350] | 11
CCc1c2c(nc3ccc(OC(=O)N4CCC(N5CCCCC5)CC4)cc13)-c1cc3c(c(=O)n1C2)COC(=O)[C@]3(O)CC [CPT11, irinotecan] | 62
CC[C@@]1(O)C(=O)OCc2c1cc1n(c2=O)Cc2c-1nc1cc(F)c(C)c3c1c2C(N)CC3.CS(=O)(=O)O (stereo partly shown) [DX8951f] | 29
CC[C@@]1(O)C(=O)OCc2c1cc1n(c2=O)Cc2c-1nc1cc3c(cc1c2CN1CCN(C)CC1)OCCO3 [GG211] | 35
CCc1c2c(nc3ccc(O)cc13)-c1cc3c(c(=O)n1C2)COC(=O)[C@]3(O)CC [SN-38] | 231
CC[C@@]1(O)C(=O)OCc2c1cc1n(c2=O)Cc2cc3c(CN(C)C)c(O)ccc3nc2-1 [topotecan] | 110

System: not listed separately
Assay: Effect of GF120918 on oral bioavailability of topotecan in mdr1a/1b (-/-) mice
Assay type: in vivo
Conditions: topotecan 1 mg/kg oral, GF120918 50 mg/kg oral 15 min prior, plasma
Text: The tests with mice assessed the bioavailability of the drug in mdr1a/1b double knock out mice in the presence and the absence of a BCRP inhibitor. The bioavailability tests can also be carried out with either MRP and/or P-gp knock out mice thus enabling assessment of whether any effect found due to the presence of the bioinhibitor is due solely to BCRP, not due to P-gp and/or MRP. Thus it can be determined whether the particular drug transported is transported using one or more transport systems. The drug to be transported can be provided with a detectable marker to assess where it is located and to be able to quantitate it. Some drugs can be detected and quantitated in plasma without use of a detectable marker. The methodology employed is analogous to that disclosed in the Lancet article discussed above and is also described in Br. J. Cancer 1997, 76: 1181–1183. The methodology is thus considered to be incorporated by reference and is considered enabled to a person skilled in the art. […]
GF120918 was suspended in a hydroxypropylmethylcellulose (10 g/l): Tween 80 (2% v/v): H2O (0.5:1:98.5 v/v/v) formulation for oral administration, at 5 mg.ml^−1. […] Topotecan levels in plasma were determined by HPLC analysis as described by Rosing et al., 1995, J. Chromatography, 668: 107–115, and are depicted in FIG. 1.

Compound | increase in the area under the curve (AUC) of oral topotecan
CC[C@@]1(O)C(=O)OCc2c1cc1n(c2=O)Cc2cc3c(CN(C)C)c(O)ccc3nc2-1 [topotecan] | approximately 6 fold

System: not listed separately
Assay: Clinical trial: oral topotecan with or without GF120918, plasma levels
Assay type: in vivo
Conditions: three patients, topotecan 1.0 mg/m2 oral, with or without oral GF120918 (1000 mg)
Description: In this example the first results of a clinical trial are shown. Three patients received topotecan orally at a dosis of 1.0 mg.m^−2. Topotecan was administered with or without GF120918 (1000 mg). For illustrative purposes, the plasma concentration vs. time is shown for one patient in FIG. 2. In FIG. 3 the average including the standard deviation is shown for all three patients.

Compound | systemic exposure (AUC) to oral topotecan
CC[C@@]1(O)C(=O)OCc2c1cc1n(c2=O)Cc2cc3c(CN(C)C)c(O)ccc3nc2-1 [topotecan] | increased systemic exposure
